From patent US6670448B2, “Peptide antagonists of zonulin and methods for use of the same” (University of Maryland, Baltimore, priority 1998, dated 2003)
No end group written: not given here.

System: rabbit ileum
Experiment: Peptide antagonists FZI/0 and FZI/1 on rabbit ileum in Ussing chambers, alone or before ZOT or zonulin
Assay type: cell-based
Experimental: Next, Ussing chamber assays were carried out using ileum from 2-3 kg adult male New Zealand white rabbits, which were sacrificed by cervical dislocation. A 20 cm segment of ileum was removed, rinsed free of the intestinal content, opened along the mesenteric border, and stripped of muscular and serosal layers. Eight sheets of mucosa so prepared were then mounted in lucite Ussing chambers (1.12 cm^2 opening), connected to a voltage clamp apparatus (EVC 4000 WPI, Saratosa, Fla.), and bathed with freshly prepared Ringer's solution comprising 53 mM NaCl, 5.0 mM KCl, 30.5 mM mannitol, 1.69 mM Na2HPO4, 0.3 mM NaH2PO4, 1.25 mM CaCl2, 1.1 mM MgCl2, and 25 mM NaHCO3. The bathing solution was maintained at 37° C. with water-jacketed reservoirs connected to a constant-temperature circulating pump and gassed with 95% O2/5% CO2.
100 μl of zonulin purified from rabbit intestine was added to the mucosal side. The potential difference (PD) was measured every 10 min, and the short-circuit current (Isc) and tissue resistance (Rt) were calculated as described by Fasano et al, supra. Because of tissue variability, data were calculated as ΔRt (Rt at time x)−(Rt at time 0).
Next, rabbit ileum mounted in Ussing chambers as described above, were exposed to 100 μg of FZI/0 (SEQ ID NO:15), 100 μg ofFZI/1 (SEQ ID NO:34), 1.0 μg of 6xHis-ZOT (obtained as described in Example 1), 1.0 μg of zonulini (obtained as described in Example 3), or 1.0 μg of zonulinh (obtained as described in Example 3) alone; or pre-exposed for 20 min to 100 μg of FZI/0 or FZI/1, at which time 1.0 μg of 6xHis-ZOT, 1.0 μg of zonulini, or 1.0 μg of zonulinh, was added. ΔRt was then calculated as described above.

Sequence	change in Rt as compared to the negative control, peptide alone (100 μg peptide alone, not significant, FIG. 8 closed bar)	decrease of the effect of ZOT on Rt (pre-treatment 20 min with 100 μg peptide, then 1.0 μg 6xHis-ZOT, FIG. 8)	decrease of the effect of zonulinh on Rt (pre-treatment 20 min with 100 μg peptide, then 1.0 μg zonulinh, FIG. 8)	decrease of the effect of zonulini on Rt (pre-treatment 20 min with 100 μg peptide, then 1.0 μg zonulini, FIG. 8)	inhibitory effect on the action of ZOT, zonulini and zonulinh on Rt (pre-exposure 20 min to 100 μg peptide, FIG. 8 shaded bar)
GGVLVQPG [FZI/0, synthetic octapeptide corresponding to amino acid residues 8-15 of human fetal zonulini]	0.5%	75%	100%	97%	–
VGVLGRPG [FZI/1, second synthetic peptide with positions 8, 12 and 13 changed to the residues of zonulinb (Val, Gly, Arg)]	–	–	–	–	completely ablated
